Each block holds one molecule with its values, some of them ahead of it.
Assay: Stability / elimination of the 2′-modifying group with tetrabutylammonium fluoride (TLC analysis)
Format: physicochemical
Conditions: room temperature
Protocol: To the compound (4 mg, 0.01 mmol) synthesized in Example 8 were added 1M tetrabutylammonium fluoride/THF (1 mL), and the reaction was carried out at room temperature for 6 days. […] The compound was thus stable.
To the compound (4 mg, 0.01 mmol) synthesized in Example 5 was added 1 M tetrabutylammonium fluoride/THF (1 mL) for a reaction at room temperature for 10 minutes.
To the compound (6 mg, 0.01 mmol) synthesized in Example 16 was added 1 M tetrabutylammonium fluoride/THF (1 mL), followed by a reaction at room temperature for 2 hours.

Stability of 2-(N-methylcarbamoyl)ethyl group to tetrabutylammonium fluoride (1M tetrabutylammonium fluoride/THF, 6 days): No degradation was observed
Compound: CNC(=O)CCO[C@@H]1[C@H](O)[C@@H](COC(c2ccccc2)(c2ccc(OC)cc2)c2ccc(OC)cc2)O[C@H]1n1ccc(=O)[nH]c1=O [Example 8, 5′-O-(4,4′-Dimethoxytrityl)-2′-O-[2-(N-methylcarbamoyl)ethyl]uridine]

Compound: COc1ccc(C(OC[C@H]2O[C@@H](n3ccc(=O)[nH]c3=O)[C@H](OCCC(=O)N(C)C)[C@@H]2O)(c2ccccc2)c2ccc(OC)cc2)cc1 [Example 16, 5′-O-(4,4′-Dimethoxytrityl)-2′-O-[2-(N,N-dimethylcarbamoyl)ethyl]uridine]
Elimination of 2-(N,N-dimethylcarbamoylethyl) group with tetrabutylammonium fluoride (1 M tetrabutylammonium fluoride/THF, 2 hours): Complete conversion to 5′-O-dimethoxytrityl uridine

Elimination of 2-methoxycarbonyl group with tetrabutylammonium fluoride (1 M tetrabutylammonium fluoride/THF, 10 minutes): Complete conversion to uridine
Compound: COC(=O)CCO[C@@H]1[C@H](O)[C@@H](CO)O[C@H]1n1ccc(=O)[nH]c1=O [Example 5, 2′-O-[2-(Methoxycarbonyl)ethyl]uridine]

Reference: patent US20100016574A1, “2'-Hydroxyl Group-Modified Ribonucleoside Derivatives” (Tokyo Institute of Technology, priority 2006, published 2010)
